Read-outs that look alike come from different tables or passages of the source.
Legend:
Format in all cases: cell-based
AGTR1 = target: T1, AGTR1 (Homo sapiens, UniProt P30556); experiment: DiscoveRx β-arrestin2 recruitment assay (enzyme complementation, Pathunter CHO-K1 AGTR1 β-arrestin cell line)
T1 construct: host or cells: Pathunter CHO-K1 AGTR1 β-arrestin cell line (CHO-K1)
T1 sequence (P30556 1-359): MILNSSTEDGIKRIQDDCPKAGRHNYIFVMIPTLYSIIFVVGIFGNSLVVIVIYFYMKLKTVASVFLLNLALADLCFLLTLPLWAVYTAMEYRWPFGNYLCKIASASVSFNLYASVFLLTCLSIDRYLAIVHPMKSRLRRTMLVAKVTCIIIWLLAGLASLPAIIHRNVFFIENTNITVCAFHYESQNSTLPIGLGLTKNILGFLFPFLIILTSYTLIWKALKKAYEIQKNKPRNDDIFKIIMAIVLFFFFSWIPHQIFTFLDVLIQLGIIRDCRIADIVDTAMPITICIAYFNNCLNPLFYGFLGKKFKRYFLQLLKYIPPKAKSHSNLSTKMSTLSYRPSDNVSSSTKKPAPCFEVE
Method in brief: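 CHO-K1 cells expressing AGTR1 with β-arrestin2 enzyme-complementation reporter, plated 14-16 h ahead in 1% serum medium, then exposed to compounds for 90 min at 37° C. Chemiluminescence read after 1 h detection. EC50 (agonist) or IC50 (antagonist) from 4-parameter logistic fit; activity as percentage of All maximal effect.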

hAT1R [1] = target: T2, hAT1R (Homo sapiens, UniProt P30556); experiment: BRET Gq biosensor assay, agonist response, HEK293 cells; conditions: section of the 42nd table directly before the BRET P63 section
T2 sequence (P30556 1-359): T1 sequence (P30556 1-359)
Method in brief: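 HEK293 cells co-transfected with signal-peptide-optimized hAT1R plus Gαq-Rluc, Gβ1 and GFP-Gγ1, assayed 48 h later in Tyrode's buffer pH 7.4. Coelenterazine (2 μM final) added, then compound; BRET2 (515/410 nm) read after 5 min at room temperature. EC50 by 4-parameter fit, normalized to unstimulated (0%) and maximal AngII (100%).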

hAT1R [2] = target: T2, hAT1R; experiment: BRET β-arrestin2 biosensor assay, higher receptor expression (hAT1R 5 ng/well), HEK293 cells; conditions: for EC50: High AT1R Expression
[3] = DiscoveRx β-arrestin2 recruitment
[4] = DiscoveRx β-arrestin2 recruitment, maximal response

SMILES | EC50 (AGTR1; [3]) | DiscoveRx β-arrestin2 Ymax (%) (AGTR1; [4]) | EC50 (hAT1R [1]) | BRET β-Arrestin2 High AT1R Expression Ymax (%) (hAT1R [2]) | EC50 (hAT1R [2]) | DiscoveRx β-arrestin2 Ymax (%) (AGTR1; [3]) | EC50 (AGTR1)
CCCCc1nc(Cl)c(C(=O)O)n1Cc1ccc(-c2cc(-c3ccc(C(=O)N(C)C)cc3)ccc2-c2noc(=O)[nH]2)cc1 [Example 409] | 59.3 nM | 50.6% | 136 nM | 88.7% | 73.2 nM |  | 
CCCCc1ncc(-c2nnc(C)o2)n1Cc1ccc(-c2cc(-c3ccccc3)ccc2-c2nn[nH]n2)cc1 [Example 413, 2-(1-((6′-(2H-tetrazol-5-yl)-[1,1′:3′,1″-terphenyl]-4-yl)methyl)-2-butyl-1H-imidazol-5-yl)-5-methyl-1,3,4-oxadiazole] | 21.8 nM | 16.3% | 351 nM | 47.5% | 55.6 nM |  | 
CCCCc1ncc(C(=O)NCCO)n1Cc1ccc(-c2cc(-c3ccccc3)ccc2C(=O)O)cc1 [Example 414] | 166 nM | 21.5% | 460 nM | 36.4% | 505 nM |  | 
CCCCc1ncc(C(=O)O)n1Cc1ccc(-c2cc(-c3ccccc3)ccc2C(=O)O)cc1 [Example 415] | 111 nM | 29.3% | 487 nM | 26.8% | 206 nM |  | 
CCCCc1nc(Cl)c(C(=O)O)n1Cc1ccc(-c2cc(N3CCCC(F)(F)C3)ccc2-c2nn[nH]n2)cc1 [Example 416, 2-butyl-4-chloro-1-((5′-(3,3-difluoropiperidin-1-yl)-2′-(2H-tetrazol-5-yl)-[1,1′-biphenyl]-4-yl)methyl)-1H-imidazole-5-carboxylic acid] | 18 nM | 29.5% | > 100000 nM | 69.0% | 115 nM |  | 
CCCCc1nc(Cl)c(C(=O)O)n1Cc1ccc(-c2cc(-c3cccc(C(F)F)n3)ccc2-c2nn[nH]n2)cc1 [Example 423, 2-butyl-4-chloro-1-((5′-(6-(difluoromethyl)pyridin-2-yl)-2′-(2H-tetrazol-5-yl)-[1,1′-biphenyl]-4-yl)methyl)-1H-imidazole-5-carboxylic acid] | 22.9 nM | 22.8% | 25.4 nM | 73.3% | 26 nM |  | 
CCCCC(=O)N(Cc1ccc(-c2cc(-c3ccccc3)ccc2-c2nn[nH]n2)nc1)[C@H](C(=O)O)C(C)C [Example 430] | 33.2 nM |  | 275 nM | 78.9% | 70.4 nM | 55.2% | 
CCCCC(=O)N(Cc1ccc(-c2cc(-c3ccccc3)ccc2-c2nn[nH]n2)cn1)[C@H](C(=O)O)C(C)C [Example 431] | 194 nM |  | 910 nM | 92.7% | 1590 nM | 26.0% | 
CCCC(=O)N(Cc1ccc(-c2cc(-c3ccccc3)ccc2-c2nn[nH]n2)nc1)[C@H](C(=O)O)C(C)C [Example 432] | 40.1 nM |  | 286 nM | 88.4% | 163 nM | 42.9% | 
CC(C)CCC(=O)N(Cc1ccc(-c2cc(-c3ccccc3)ccc2-c2nn[nH]n2)nc1)[C@H](C(=O)O)C(C)C [Example 433] | 59.1 nM |  | 581 nM | 92.4% | 115 nM | 49.6% | 
CCCCC(=O)N(Cc1ccc(-c2cc(-c3ccccc3)ccc2-c2noc(=O)[nH]2)nc1)[C@H](C(=O)O)C(C)C [Example 434, (S)-3-Methyl-2-(N-((6-(4-(5-oxo-4,5-dihydro-1,2,4-oxadiazol-3-yl)-[1,1′-biphenyl]-3-yl)pyridin-3-yl)methyl)pentanamido)butanoic acid 2,2,2-trifluoroacetate] | 72 nM |  | 1280 nM | 96.6% | 316 nM | 40.9% | 
CCCCC(=O)N(Cc1ccc(-c2cc(Oc3ccccc3)ccc2-c2nn[nH]n2)cc1)[C@H](C(=O)O)C(C)C [Example 435, (S)-3-Methyl-2-(N-((5′-phenoxy-2′-(2H-tetrazol-5-yl)-[1,1′-biphenyl]-4-yl)methyl)pentanamido)butanoic acid] | 1410 nM |  | > 100000 nM | 12.3% | 305 nM | 19.1% | 
CCCCC(=O)N(Cc1ccc(-c2cc(Oc3cccnc3)ccc2-c2nn[nH]n2)cc1)[C@H](C(=O)O)C(C)C [Example 436] | 993 nM |  | > 100000 nM | 58.0% | 13600 nM | 31.2% | 
CCCCC(=O)N(Cc1ccc(-c2cc(Oc3cccc(OC(F)(F)F)c3)ccc2-c2nn[nH]n2)cc1)[C@H](C(=O)O)C(C)C [Example 437] | 3920 nM |  | > 100000 nM | 16.4% | 168 nM | 26.4% | 
CCCCC(=O)N(Cc1ccc(-c2cc(-c3cc(F)cc(F)c3)ccc2-c2nn[nH]n2)cc1)[C@H](C(=O)O)C(C)C [Example 438, (S)-2-(N-((3″,5″-Difluoro-6′-(2H-tetrazol-5-yl)-[1,1′:3′,1″-terphenyl]-4-yl)methyl)pentanamido)-3-methylbutanoic acid] | 20.4 nM |  | 718 nM | 74.6% | 34.8 nM | 41.7% | 
CCCCC(=O)N(Cc1ccc(-c2cc(-c3cccnc3OC)ccc2-c2nn[nH]n2)cc1)[C@H](C(=O)O)C(C)C [Example 439] | 108 nM |  | 386 nM | 35.8% | 117 nM | 26.4% | 
CCCCC(=O)N(Cc1ccc(-c2cc(-c3ccc(NC(C)=O)cc3)ccc2-c2nn[nH]n2)cc1)[C@H](C(=O)O)C(C)C [Example 440] | 241 nM |  | 582 nM | 50.1% | 28300 nM | 13.6% | 
CCCCC(=O)N(Cc1ccc(-c2cc(-c3ccc4ncccc4c3)ccc2-c2nn[nH]n2)cc1)[C@H](C(=O)O)C(C)C [Example 441] | 101 nM |  | > 100000 nM | 64.3% | 57 nM | 39.3% | 
CCCCC(=O)N(Cc1ccc(-c2cc(-c3cnn(C)c3)ccc2-c2nn[nH]n2)cc1)[C@H](C(=O)O)C(C)C [Example 442] | 105 nM |  | > 100000 nM | 17.2% | 303 nM | 10.9% | 
CCCCC(=O)N(Cc1ccc(-c2cc(N3CC(C)(C)c4ccccc43)ccc2-c2nn[nH]n2)cc1)[C@H](C(=O)O)C(C)C [Example 450] | 479 nM |  | 5260 nM | 77.6% | 308 nM | 23.1% | > 100000 nM
CCCCC1=NC2(CCCC2)C(=O)N1Cc1ccc(-c2cc(-c3ccccc3)ccc2-c2nn[nH]n2)nc1 [Example 451, 3-((6-(4-(1H-Tetrazol-5-yl)-[1,1′-biphenyl]-3-yl)pyridin-3-yl)methyl)-2-butyl-1,3-diazaspiro[4.4]non-1-en-4-one] | 23.3 nM |  | 4110 nM | 44.8% | 13700 nM | 11.4% | 
CCCCC1=NC2(CCCC2)C(=O)N1Cc1ccc(-c2cc(-c3ccccc3)ccc2-c2nn[nH]n2)cn1 [Example 452, 3-((5-(4-(2H-Tetrazol-5-yl)-[1,1′-biphenyl]-3-yl)pyridin-2-yl)methyl)-2-butyl-1,3-diazaspiro[4.4]non-1-en-4-one] | 8.1 nM |  | 44.8 nM | 84.6% | 33.8 nM | 36.1% | 
CCCCC1=NC2(CCCC2)C(=O)N1Cc1ccc(-c2cc(-c3ccccc3)ccc2-c2noc(=O)[nH]2)cn1 [Example 453, 3-(3-(6-((2-Butyl-4-oxo-1,3-diazaspiro[4.4]non-1-en-3-yl)methyl)pyridin-3-yl)-[1,1′-biphenyl]-4-yl)-1,2,4-oxadiazol-5(4H)-one] | 31.4 nM |  | 24 nM | 95.9% | 13 nM | 59.5% | 
CCCCC1=NC2(CCCC2)C(=O)N1Cc1ccc(-c2cc(Oc3ccccc3)ccc2-c2nnn[nH]2)cc1 [Example 454, 2-Butyl-3-((5′-phenoxy-2′-(1H-tetrazol-5-yl)-[1,1′-biphenyl]-4-yl)methyl)-1,3-diazaspiro[4.4]non-1-en-4-one] | 22.7 nM |  | > 100000 nM | 18.4% | 56.2 nM | 11.2% | 
